Measured values taken from US5919901A (priority 1996, dated 1999).

Assays:
Adult male Wistar rats = assay: In vivo feeding after ICV injection, rodent chow consumed in 2 hours; design: species or system rat; details: for Feeding (g/2 h): rats, ICV, 1-6 nmoles peptide, chow consumed in 2 hours, saline <3 g/2 hours
Protocol: Adult male Wistar rats were surgically implanted with a chronic intracerebral ventricular (ICV) cannula (Plastic Products, Roanoke, Va.) using a stereotaxic instrument. Several days after the surgery, 1-6 nmoles of each peptide (or saline) was injected into the lateral ventricle of 4-12 rats in a volume of 5-10 μl The quantity of rodent chow consumed in a 2 hour period was measured.

Rat Y4/PP1 (clone) = Rat Y4/PP1 (clone) (Rattus norvegicus, UniProt Q63447); assay: Rat Y4/PP1 [125I]PP binding assay
Chain of Rat Y4/PP1 (clone) (Q63447 whole entry): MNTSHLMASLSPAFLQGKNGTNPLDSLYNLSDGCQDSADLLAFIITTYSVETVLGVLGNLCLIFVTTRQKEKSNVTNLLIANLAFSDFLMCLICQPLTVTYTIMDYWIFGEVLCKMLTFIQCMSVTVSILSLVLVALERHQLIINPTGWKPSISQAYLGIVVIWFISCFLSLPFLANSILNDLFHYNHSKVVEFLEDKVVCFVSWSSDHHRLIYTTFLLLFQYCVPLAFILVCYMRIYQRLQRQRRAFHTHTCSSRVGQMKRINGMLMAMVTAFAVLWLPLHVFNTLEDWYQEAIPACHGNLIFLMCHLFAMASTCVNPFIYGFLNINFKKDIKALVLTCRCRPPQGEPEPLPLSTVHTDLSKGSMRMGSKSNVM

| Compound | Feeding (g/2 h) (Adult male Wistar rats) | affinity for the rat Y4/PP1 receptor (Rat Y4/PP1 (clone)) | feeding response in rats (Adult male Wistar rats; administered ICV to rats) |
| --- | --- | --- | --- |
| CC[C@H](C)[C@H](NC(=O)[C@H](Cc1ccc(O)cc1)NC(=O)[C@H](Cc1c[nH]cn1)NC(=O)[C@H](CCCNC(=N)N)NC(=O)[C@H](CC(C)C)NC(=O)[C@H](C)NC(=O)[C@@H](N)CO)C(=O)N[C@@H](CC(N)=O)C(=O)N[C@@H](CC(C)C)C(=O)N[C@H](C(=O)N[C@H](C(=O)N[C@@H](CCCNC(=N)N)C(=O)N[C@@H](CCC(N)=O)C(=O)N[C@@H](CCCNC(=N)N)C(=O)N[C@@H](Cc1ccc(O)cc1)C(N)=O)[C@@H](C)O)[C@@H](C)CC [r/h(22-36)NPY, (22-36)NPY] | < 3 | – | – |
| CC[C@H](C)[C@H](NC(=O)[C@H](Cc1ccc(O)cc1)NC(=O)[C@H](CCCNC(=N)N)NC(=O)[C@H](CCCNC(=N)N)NC(=O)[C@H](CC(C)C)NC(=O)[C@H](CC(=O)O)NC(=O)[C@H](C)NC(=O)[C@H](C)NC(=O)[C@H](Cc1ccc(O)cc1)NC(=O)[C@H](CCC(N)=O)NC(=O)[C@H](C)NC(=O)[C@H](CCSC)NC(=O)[C@H](CCC(N)=O)NC(=O)[C@H](CCC(=O)O)NC(=O)[C@@H]1CCCN1C(=O)[C@@H](NC(=O)[C@H](C)NC(=O)[C@H](CC(N)=O)NC(=O)[C@H](CC(=O)O)NC(=O)CNC(=O)[C@@H]1CCCN1C(=O)[C@H](Cc1ccc(O)cc1)NC(=O)[C@@H](NC(=O)[C@@H]1CCCN1C(=O)[C@H](CCC(=O)O)NC(=O)[C@H](CC(C)C)NC(=O)[C@@H]1CCCN1C(=O)[C@H](C)N)C(C)C)[C@@H](C)O)C(=O)N[C@@H](CC(N)=O)C(=O)N[C@@H](CCSC)C(=O)N[C@@H](CC(C)C)C(=O)N[C@H](C(=O)N[C@@H](CCCNC(=N)N)C(=O)N1CCC[C@H]1C(=O)N[C@@H](CCCNC(=N)N)C(=O)N[C@@H](Cc1ccc(O)cc1)C(N)=O)[C@@H](C)O [rPP, pancreatic polypeptide] | < 3 | very high affinity | does not induce much feeding |
| CC[C@H](C)[C@H](NC(=O)[C@H](Cc1ccc(O)cc1)NC(=O)[C@@H](N)Cc1c[nH]cn1)C(=O)N[C@@H](CC(N)=O)C(=O)N[C@@H](CC(C)C)C(=O)N[C@H](C(=O)N[C@H](C(=O)N[C@@H](CCCNC(=N)N)C(=O)N[C@@H](CCC(N)=O)C(=O)N[C@@H](CCCNC(=N)N)C(=O)N[C@@H](Cc1ccc(O)cc1)C(N)=O)[C@@H](C)O)[C@@H](C)CC [r/h(26-36)NPY, (26-36)NPY] | < 3 | – | – |
| CC[C@H](C)[C@H](NC(=O)[C@H](Cc1ccc(O)cc1)NC(=O)[C@H](CCCNC(=N)N)NC(=O)[C@H](CCCNC(=N)N)NC(=O)[C@H](CC(C)C)NC(=O)[C@H](CC(=O)O)NC(=O)[C@H](C)NC(=O)[C@H](C)NC(=O)[C@H](Cc1ccc(O)cc1)NC(=O)[C@H](CCC(N)=O)NC(=O)[C@H](C)NC(=O)[C@H](CCSC)NC(=O)[C@H](CCC(N)=O)NC(=O)[C@H](CCC(=O)O)NC(=O)[C@@H]1CCCN1C(=O)[C@@H](NC(=O)[C@H](C)NC(=O)[C@H](CC(N)=O)NC(=O)[C@H](CC(=O)O)NC(=O)CNC(=O)[C@@H]1CCCN1C(=O)[C@H](Cc1ccc(O)cc1)NC(=O)[C@@H](NC(=O)[C@@H]1CCCN1C(=O)[C@H](CCC(=O)O)NC(=O)[C@H](CC(C)C)NC(=O)[C@@H]1CCCN1C(=O)[C@H](C)N)C(C)C)[C@@H](C)O)C(=O)N[C@@H](CC(N)=O)C(=O)N[C@@H](CCSC)C(=O)N[C@@H](CC(C)C)C(=O)N[C@H](C(=O)N[C@@H](CCCNC(=N)N)C(=O)N1CCC[C@H]1C(=O)N[C@@H](CCCNC(=N)N)C(=O)N[C@@H](Cc1ccc(O)cc1)C(N)=O)[C@@H](C)O [hPP, pancreatic polypeptide] | > 5 | – | – |
